# Test results taken from patent publication US20230192703A1, “Polycyclic amide derivative as CDK9 inhibitor, preparation method therefor and use thereof” (Suzhou AlphaMa Biotechnology Co., Ltd., priority 2020, published 2023).
# What was measured:
# Mv4-11 cells = experiment: Inhibition of the proliferation of Mv4-11 cells (CCK8); format: cell-based; conditions: Mv4-11 cell proliferation, CCK8 OD450
# Method: The inhibition effect of the compounds of the present disclosure on the proliferation of Mv4-11 cells (ATCC:CRL-9591TM) in vitro was determined by the following method:
# Cell inoculation: Mv4-11 cells with good growing state in logarithmic growth phase were inoculated into a 96-well plate at 20000 cells per well and 50 uL, and cultured at 37° C. and under 5% CO2 condition for 2-4 h. Administration: The compound was diluted with 1640 medium containing 10% FBS and 1% PS: 0.4 uL of the compound with an initial concentration of 1 mM was placed in a dilution plate, each added with 199.6 uL of the above culture medium, and gradiently diluted 4-fold, so that the final concentration in the added cell was 1000, 250, 62.5, 15.625, 3.91, 0.98, 0.24, 0.06 nM. 50 μL of the medium containing the compound was sequentially added, and it was placed in a 37° C., 5% CO2 cell incubator for 48 hours.
# Detection: 10 uL CCK8 (Dojindo, CK 04) solution was added to each well, incubated in 37° C. 5% CO2 cell incubator for 2 hours, and then the OD450 value was read by Synegry H1 (BioTek) multimode microplate reader.
# Calculation: The IC50 value was calculated using Graphpad prism 5.0 software according to the concentration of the compound and the corresponding signal value.
# CDK9 kinase = biological target: T1, CDK9 kinase (Homo sapiens, UniProt P50750); experiment: Inhibitory effect on the kinase activity of CDK9 in vitro; format: biochemical; conditions: CDK9 kinase (Millipore), CTD3 substrate polypeptide, Caliper
# T1 construct: purchased Millipore 14-685M
# Method: The detection of the inhibitory effect of the compounds of the present disclosure on the kinase activity of CDK9 in vitro was determined by the following method:
# Compound preparation: The compound was accurately weighed and dissolved in DMSO (Sigma, D2650) to a concentration of 100 um for later use. The compound was diluted to 5-fold of a desired highest concentration, and diluted 4-fold into 6 concentration gradients, allowing the final concentration of the compound in the reaction system to be 100, 25, 6.25, 1.56, 0.39, 0.098 nM. 5 ul was taken to a 384-well plate (Corning, 4512).
# Detection: Data was collected by Caliper.
# Calculation: The IC50 value was calculated by Graphpad prism 5.0 software according to the concentration of the compound and the corresponding signal value.
# [1] = system: phosphorylation of RNA pol II Ser2 in Mv4-11 cells; experiment: Inhibition of phosphorylation of RNA pol II Ser2 in Mv4-11 cells (SDS-PAGE, FIG. 1); format: cell-based; conditions: 6 hours, different concentrations
# Method: The inhibition effect of the compounds of the present disclosure on the in vitro Mv4-11 cell RNA pol II Ser 2 was determined by the following method:
# Cell inoculation: Mv4-11 cells with good growing state in logarithmic growth phase were inoculated into a six-well plate with 2*10^5 cells/well, and cultured overnight at 37° C. and under 5% CO2 condition.
# Administration: The compound was diluted with 2 mL of 1640 medium containing 10% FBS and 1% PS. 2 ul of the medium containing the compound was added to the overnight cultured cells, and it was placed in a 37° C., 5% CO2 cell incubator for 6 hours.
# Protein extraction and quantification: Cell suspension was collected and centrifuged at 1000 g for 5 min, the cell culturing medium was discarded, and PBS was added for resuspension and centrifugation; it was repeated three times, the residual liquid was sucked dry, 80 uL cell lysate was added per well, it was placed to ice, shaked for 10 min on a shaker, centrifuged at 12000 g for 5 min, and the supernatant, ie, the total protein solution, was collected; the protein concentration was tested by BCA.
# T1 sequence (P50750 whole entry): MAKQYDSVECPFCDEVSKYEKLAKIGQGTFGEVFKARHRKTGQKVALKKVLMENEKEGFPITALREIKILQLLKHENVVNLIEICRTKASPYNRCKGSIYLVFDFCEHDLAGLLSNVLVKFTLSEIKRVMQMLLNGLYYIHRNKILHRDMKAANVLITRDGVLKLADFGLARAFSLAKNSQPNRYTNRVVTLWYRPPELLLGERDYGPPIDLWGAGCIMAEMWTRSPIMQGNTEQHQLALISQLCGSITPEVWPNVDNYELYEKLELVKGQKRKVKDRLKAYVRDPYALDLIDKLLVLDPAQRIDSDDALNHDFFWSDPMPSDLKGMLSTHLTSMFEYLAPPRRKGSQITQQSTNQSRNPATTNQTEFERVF
# T1 sequence (O60563 whole entry partner): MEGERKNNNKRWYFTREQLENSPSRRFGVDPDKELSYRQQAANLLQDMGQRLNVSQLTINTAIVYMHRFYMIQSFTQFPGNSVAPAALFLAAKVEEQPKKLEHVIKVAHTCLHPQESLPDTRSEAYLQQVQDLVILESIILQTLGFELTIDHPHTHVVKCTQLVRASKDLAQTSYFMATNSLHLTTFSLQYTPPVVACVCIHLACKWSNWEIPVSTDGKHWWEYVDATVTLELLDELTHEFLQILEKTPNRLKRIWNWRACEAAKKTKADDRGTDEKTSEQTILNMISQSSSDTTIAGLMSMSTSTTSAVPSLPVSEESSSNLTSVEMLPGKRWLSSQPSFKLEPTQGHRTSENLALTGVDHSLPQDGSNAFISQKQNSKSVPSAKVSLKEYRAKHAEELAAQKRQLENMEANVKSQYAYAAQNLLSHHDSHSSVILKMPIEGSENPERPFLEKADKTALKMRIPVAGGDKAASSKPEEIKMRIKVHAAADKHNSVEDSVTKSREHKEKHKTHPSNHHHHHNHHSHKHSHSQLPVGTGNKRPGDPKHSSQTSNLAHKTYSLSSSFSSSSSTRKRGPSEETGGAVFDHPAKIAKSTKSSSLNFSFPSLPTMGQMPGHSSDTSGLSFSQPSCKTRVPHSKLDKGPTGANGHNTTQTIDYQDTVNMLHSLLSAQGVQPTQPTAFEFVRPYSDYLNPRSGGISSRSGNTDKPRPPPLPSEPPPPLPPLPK
"IC50 (Mv4-11 cells; Homo sapiens, MV4-11, 48 h) [nM]",IC50 (CDK9 kinase) [nM],IC50 (Mv4-11 cells; 48 hours) [nM],SMILES,inhibitory effect on the phosphorylation of RNA pol II Ser 2 in Mv4-11 cells [1]
15.3,6.3,–,"CC(=O)N[C@@H]1CCC[C@H](C(=O)Nc2cc(-c3cnn4c3CC(C)(C)C4)c(C(F)(F)F)cn2)C1 [Compound 30, (1S,3R)-3-acetamido-N-(4-(5,5-dimethyl-5,6-dihydro-4H-pyrrolo[1,2-b]pyrazol-3-yl)-5-(trifluoromethyl)pyridin-2-yl)cyclohexane-1-carboxamide]",–
352,28.6,–,"CC1(C)Cc2c(-c3cc(NC(=O)[C@H]4CCC[C@H](c5cccnc5)C4)ncc3Cl)cnn2C1 (single isomer, unassigned) [Compound 20-1]",–
7.6,2.8,–,"C[C@H](N)C(=O)N1C[C@H]2CC(C(=O)Nc3cc(-c4cnn5c4CC(C)(C)C5)c(Cl)cn3)C[C@H]2C1 (stereo partly drawn) [Compound 5, (3aR,6aS)-2-(L-alanyl)-N-(5-chloro-4-(5,5-dimethyl-5,6-dihydro-4H-pyrrolo[1,2-b]pyrazol-3-yl)pyridin-2-yl)octahydrocyclopenta[c]pyrrole-5-carboxamide]",–
10.6,4.3,–,"CC(=O)N[C@H]1C[C@@H]2C[C@H](C(=O)Nc3cc(-c4cc(C#N)n5c4CC(C)(C)C5)c(Cl)cn3)C[C@@H]2C1 (single isomer, unassigned) [Compound 14-2-1]",–
17.5,3.2,–,"CC(=O)N1C[C@H]2CC(C(=O)Nc3cc(-c4cc(C#N)n5c4CC(C)(C)C5)c(Cl)cn3)C[C@H]2C1 (single isomer, unassigned) [Compound 7-1]",significant inhibitory effect
2.8,3.2,–,"Cn1ccc([C@@H]2CCC[C@H](C(=O)Nc3cc(-c4cnn5c4CC(C)(C)C5)c(Cl)cn3)C2)n1 (single isomer, unassigned) [Compound 22-1-1]",significant inhibitory effect
4.1,2.9,–,"CNC(=O)C1C[C@@H]2CC(C(=O)Nc3cc(-c4cc(C(N)=O)n5c4CC(C)(C)C5)c(Cl)cn3)C[C@@H]2C1 (single isomer, unassigned) [Compound 26-1]",–
5.9,3.8,–,"CC(=O)N[C@H]1C[C@@H]2C[C@@H](C(=O)Nc3cc(-c4cc(C(N)=O)n5c4CC(C)(C)C5)c(Cl)cn3)C[C@@H]2C1 (single isomer, unassigned) [Compound 24-1]",–
0.5,2.8,–,"CC1(C)Cc2c(-c3cc(NC(=O)[C@@H]4CCC[C@@H](c5cccnc5)C4)ncc3Cl)cnn2C1 (single isomer, unassigned) [Compound 20-4]",–
6.3,2.8,–,"CC1(C)Cc2c(-c3cc(NC(=O)[C@H]4CCC[C@@H](c5ccncc5)C4)ncc3Cl)cnn2C1 (single isomer, unassigned) [Compound 21-3]",–
7.9,3.8,–,"Cn1cc([C@@H]2CCC[C@H](C(=O)Nc3cc(-c4cnn5c4CC(C)(C)C5)c(Cl)cn3)C2)cn1 (single isomer, unassigned) [Compound 23-1]",–
12.2,5.5,–,"CC(=O)N1CC[C@@]2(CC[C@@H](C(=O)Nc3cc(-c4cnn5c4CC(C)(C)C5)c(Cl)cn3)C2)C1 (single isomer, unassigned) [Compound 19-1]",–
–,3.5,5.1,"CNC(=O)C1C[C@@H]2CC(C(=O)Nc3cc(-c4cc(C(N)=O)n5c4CC(C)(C)C5)c(Cl)cn3)C[C@@H]2C1 (single isomer, unassigned) [Compound 26-2]",–
26,2.9,–,CC(=O)N[C@@H]1CCC[C@H](C(=O)Nc2cc(-c3cc(C(N)=O)n4c3CC(C)(C)C4)ccn2)C1 [Compound 12],significant inhibitory effect
> 1000,> 100,–,"CC1(C)Cc2c(-c3cc(NC(=O)[C@H]4CCC[C@@H](c5cccnc5)C4)ncc3Cl)cnn2C1 (single isomer, unassigned) [Compound 20-3]",–
6.8,2.9,–,"CC(=O)N1C[C@H]2CC(C(=O)Nc3cc(-c4cnn5c4CC(C)(C)C5)c(Cl)cn3)C[C@H]2C1 (single isomer, unassigned) [Compound 4-2]",–
9.2,4.8,–,"CC(=O)N[C@@H]1CCC[C@H](C(=O)Nc2cc(-c3cc(C(N)=O)c4n3CC(C)(C)C4)c(F)cn2)C1 [Compound 31, 5-(2-((1S,3R)-3-acetylaminocyclohexane-1-carboxamido)-5-fluoropyridin-4-yl)-2,2-dimethyl-2,3-dihydro-1H-pyrrolizine-7-carboxamide]",–
36.1,4.9,–,"CC(=O)N[C@@H]1CCC[C@H](C(=O)Nc2cc(-c3cc(C(N)=O)c4n3CC(C)(C)C4)c(Cl)cn2)C1 [Compound 17, 5-(2-((1S,3R)-3-acetylaminocyclohexane-1-carboxamido)-5-chloropyridin-4-yl)-2,2-dimethyl-2,3-dihydro-1H-pyrrolizine-7-carboxamide]",–
1.4,3.2,–,"CC(=O)N1CC[C@@]2(CC[C@H](C(=O)Nc3cc(-c4cnn5c4CC(C)(C)C5)c(Cl)cn3)C2)C1 (single isomer, unassigned) [Compound 18-1]",–
